Data reported in PMC5547389, “Structure-activity relationships and molecular docking studies of chromene and chromene based azo chromophores: A novel series of potent antimicrobial and anticancer agents” (EXCLI Journal, 2017).
Values after ≈ are worked out from the molar mass of the structure shown.

How the values were obtained:
[1] = system: Aspergillus fumigatus (RCMB 02568); test: Well diffusion assay (inhibition zone); type: cell-based; conditions: RCMB02568, 5 mg/mL in DMSO, fungi, read-out: Inhibition Zone (IZ) diameter, A.F
Protocol: (§1) The microorganism inoculums were uniformly spread using sterile cotton swabs on a sterile Petri dish malt extract agar (for fungi) and nutrient agar (for bacteria). One hundred cubic millimeters of each sample was added to each well (10 mm-diameter holes were cut in the agar gel, 20 mm apart from one another). The systems were incubated for 24-48 h at 37 °C (for bacteria) and at 28 °C (for fungi). After incubation, the microorganism growth was observed. Inhibition zones of the bacterial and fungal growth were measured in millimeters. Tests were performed in triplicate (Cappuccino and Sherman, 1999[12]; Vanden Berghe and Vlientinck, 1991[62]).
(§2) All the newly synthesized compounds described in this report were screened for both antibacterial and antifungal activity via the reported agar diffusion well method (Vanden Berghe and Vlietinck, 1991[62]). The inhibition zones and minimum inhibitory concentrations (MIC) were determined by the serial dilution method (Cappuccino and Sherman, 1999[12]). The antimicrobial activity of the synthesized compounds was tested against a broad panel of microorganisms including two Gram-positive bacteria: Streptococcus pneumoniae (RCMB 010010) and Bacillus subtilis (RCMB 010067), two Gram-negative bacteria: Pseudomonas aeruginosa (RCMB 010043) and Escherichia coli (RCMB 010052), and four fungi: Aspergillus fumigatus (RCMB 02568), Syncephalastrum racemosum (RCMB 05922), Geotricum candidum (RCMB 05097), and Candida albicans (RCMB 05036). Ampicillin, ciprofloxacin, gentamicin and amphotericin B were used as positive control drugs (Atta-ur-Rahman and Thomsen, 2001[7]; Smania et al., 1999[57]). […] While in the case of Gm-ve bacteria, they had weak activity. In addition, certain strains of fungi were sensitive to tested compounds with an IZ range from 12-25 except Candida albicans.

[2] = system: Bacillus subtilis (RCMB 010067); test: Well diffusion assay (inhibition zone); type: cell-based; conditions: RCMB010067, 5 mg/mL in DMSO, Gm+ve, read-out: Inhibition Zone (IZ) diameter, B.S
Protocol: as §1, §2

[3] = system: Escherichia coli (RCMB 010052); test: Well diffusion assay (inhibition zone); type: cell-based; conditions: RCMB010052, 5 mg/mL in DMSO, Gm-ve, read-out: Inhibition Zone (IZ) diameter, E.C
Protocol: as §1, §2

[4] = system: Geotricum candidum (RCMB 05097); test: Well diffusion assay (inhibition zone); type: cell-based; conditions: 5 mg/mL in DMSO; fungi; read-out: Inhibition Zone (IZ) diameter, G.C
Protocol: as §1, §2

[5] = system: Streptococcus pneumoniae (RCMB 010010); test: Well diffusion assay (inhibition zone); type: cell-based; conditions: RCMB010010, 5 mg/mL in DMSO, Gm+ve, read-out: Inhibition Zone (IZ) diameter, S.P
Protocol: as §1, §2

[6] = system: Syncephalastrum racemosum (RCMB 05922); test: Well diffusion assay (inhibition zone); type: cell-based; conditions: RCMB05922, 5 mg/mL in DMSO, fungi, read-out: Inhibition Zone (IZ) diameter, S.R
Protocol: as §1, §2

[7] = system: Aspergillus fumigatus (RCMB 02568); test: MIC by serial dilution method; type: cell-based; conditions: RCMB02568, fungi, read-out: Minimum inhibitory concentration, MIC, A.F
Protocol: as §2

[8] = system: Bacillus subtilis (RCMB 010067); test: MIC by serial dilution method; type: cell-based; conditions: RCMB010067, Gm+ve, read-out: Minimum inhibitory concentration, MIC, B.S
Protocol: as §2

[9] = system: Escherichia coli (RCMB 010052); test: MIC by serial dilution method; type: cell-based; conditions: RCMB010052, Gm-ve, read-out: Minimum inhibitory concentration, MIC, E.C
Protocol: as §2

[10] = system: Geotricum candidum (RCMB 05097); test: MIC by serial dilution method; type: cell-based; conditions: fungi; read-out: Minimum inhibitory concentration, MIC, G.C
Protocol: as §2

[11] = system: Streptococcus pneumoniae (RCMB 010010); test: MIC by serial dilution method; type: cell-based; conditions: RCMB010010, Gm+ve, read-out: Minimum inhibitory concentration, MIC, S.P
Protocol: as §2

[12] = system: Syncephalastrum racemosum (RCMB 05922); test: MIC by serial dilution method; type: cell-based; conditions: RCMB05922, fungi, read-out: Minimum inhibitory concentration, MIC, S.R
Protocol: as §2

[13] = system: Human colon carcinoma (HCT-116); test: Cytotoxic screening; type: cell-based; conditions: Homo sapiens, HCT-116; read-out: IC50 HCT-116
Protocol: (§3) Human colon carcinoma (HCT-116), human hepatocellular carcinoma (HEPG-2), adenocarcinomic human alveolar basal epithelial cell (A-549), and human breast adenocarcinoma (MCF-7) cell lines were obtained from the American Type Culture Collection (ATCC, Rockville, MD). The cells were grown on RPMI-1640 medium supplemented with 10 % inactivated fetal calf serum and 50 µg/ml gentamycin. The cells were maintained at 37 °C in a humidified atmosphere with 5 % CO2 and were subcultured two to three times a week. Potential cytotoxicity of the compounds was evaluated on tumor cells using the method of Gangadevi and Muthumary (2007[21]) (Klancnik et al., 2010[36]). The cells were grown as monolayers in growth RPMI-1640. The monolayers of 104 cells adhered at the bottom of the wells in a 96-well microtiter plate incubated for 24 h at 37 °C in a humidified incubator with 5 % CO2. The monolayers were then washed with sterile phosphate buffered saline (0.01 M pH 7.2) and simultaneously the cells were treated with 100 µL from different dilutions of tested sample in fresh maintenance medium and incubated at 37 °C. A control of untreated cells was made in the absence of tested sample. Positive controls containing doxorubicin were also tested as a reference drug for comparison. Six wells were used for each concentration of the test sample. Every 24 hours an observation under the inverted microscope was made. The number of the surviving cells was determined by staining the cells with crystal violet (Mosmann, 1983[42]; Gangadevi and Muthumary, 2007[21]) followed by cell lysing using 33 % glacial acetic acid and reading the absorbance at 590 nm using microplate reader (SunRise, TECAN, Inc, USA) after well mixing. The absorbance values from untreated cells were considered as 100 % proliferation. The number of viable cells was determined using microplate reader as previously mentioned before and the percentage of […] was calculated as [1-(ODt/ODc)] x 100 % where ODt is the mean optical density of wells treated with the tested sample and ODc is the mean optical density of untreated cells. The relation between surviving cells and drug concentration was plotted to get the survival curve of each tumor cell line after treatment with the specified compound. The 50 % inhibitory concentration (IC50), the concentration required to cause toxic effects in 50 % of intact cells, was estimated from graphic plots.
(§4) The in vitro cytotoxic activity was performed by MTT assay (Mosmann, 1983[42]; Alley et al., 1988[6]) against three human carcinoma cell lines: Human colon carcinoma (HCT-116), human breast adenocarcinoma (MCF-7), and human hepatocellular carcinoma (HEPG-2).

[14] = system: human breast adenocarcinoma (MCF-7); test: Cytotoxic screening; type: cell-based; conditions: Homo sapiens, MCF7; read-out: IC50 MCF-7
Protocol: as §3, §4

[15] = system: human hepatocellular carcinoma (HEPG-2); test: Cytotoxic screening; type: cell-based; conditions: HepG2, read-out: IC50 HepG-2
Protocol: as §3, §4

[16] = system: Pseudomonas aeruginosa (RCMB 010043); test: Well diffusion assay (inhibition zone); type: cell-based; conditions: RCMB010043, 5 mg/mL in DMSO, Gm-ve, read-out: Inhibition Zone (IZ) diameter, P.A
Protocol: as §1, §2

[17] = system: Pseudomonas aeruginosa (RCMB 010043); test: MIC by serial dilution method; type: cell-based; conditions: RCMB010043, Gm-ve, read-out: Minimum inhibitory concentration, MIC, P.A
Protocol: as §2

MIC [7]	MIC [8]	MIC [9]	MIC [10]	MIC [11]	MIC [12]	melting point	MIC [17]	Structure (SMILES)	zone of inhibition at 5000 µg/mL [1]	zone of inhibition at 5000 µg/mL [2]	zone of inhibition at 5000 µg/mL [3]	zone of inhibition at 5000 µg/mL [4]	zone of inhibition at 5000 µg/mL [5]	zone of inhibition at 5000 µg/mL [6]	IC50 [13]	IC50 [14]	IC50 [15]	zone of inhibition at 5000 µg/mL [16]
62.5 µg/mL (≈ 241 µM)	7.81 µg/mL (≈ 30.1 µM)	125 µg/mL (≈ 482 µM)	15.6 µg/mL (≈ 60.3 µM)	31.2 µg/mL (≈ 121 µM)	125 µg/mL (≈ 482 µM)			O=[N+]([O-])c1ccc(N=Nc2ccc(O)cc2O)cc1 [12c, 4-(4-Nitro-phenylazo)-benzene-1,3-diol]	16.4 mm	18.6 mm	13.5 mm	17.9 mm	17.2 mm	14.2 mm	30.2 µg/mL (≈ 117 µM)	24 µg/mL (≈ 92.6 µM)	21.2 µg/mL (≈ 81.8 µM)	
						290 °C		N#CC1=C(N)Oc2cc(O)c(N=Nc3ccc(S(=O)(=O)O)cc3)cc2C1c1ccccc1F (stereo not drawn) [13f, 4-[2-Amino-3-cyano-4-(2-fluoro-phenyl)-7-hydroxy-4H-chromen-6-ylazo]-benzenesulfonic acid]	10.3 mm	13.4 mm	12.1 mm	13.4 mm	10.6 mm	11.6 mm	100 µg/mL (≈ 214 µM)	79.8 µg/mL (≈ 171 µM)	68.4 µg/mL (≈ 147 µM)	
						275 °C		CCCCc1ccc(C2C(C#N)=C(N)Oc3cc(O)c(N=Nc4ccc(S(=O)(=O)O)cc4)cc32)cc1 (stereo not drawn) [13h, 4-[2-Amino-4-(4-butyl-phenyl)-3-cyano-7-hydroxy-4H-chromen-6-ylazo]-benzenesulfonic acid]	12.1 mm	16.3 mm	13.9 mm	15.8 mm	15.3 mm	13.6 mm	88.6 µg/mL (≈ 176 µM)	44.6 µg/mL (≈ 88.4 µM)	40.4 µg/mL (≈ 80.1 µM)	
						330 °C		CC(C)(C)c1ccc(C2C(C#N)=C(N)Oc3cc(O)c(N=Nc4ccc(S(=O)(=O)O)cc4)cc32)cc1 (stereo not drawn) [13g, 4-[2-Amino-4-(4-tert-butyl-phenyl)-3-cyano-7-hydroxy-4H-chromen-6-ylazo]-benzenesulfonic acid]	14.3 mm	16.1 mm	13.6 mm	17.1 mm	15.2 mm	15.2 mm	100 µg/mL (≈ 198 µM)	92.6 µg/mL (≈ 184 µM)	81.3 µg/mL (≈ 161 µM)	
						210 °C		CC(C)(C)c1ccc(C2C(C#N)=C(N)Oc3c2ccc2c(N)cccc32)cc1 (stereo not drawn) [7a, 2,7-Diamino-4-(4-tert-butyl-phenyl)-4H-benzo[h]chromene-3-carbonitrile]	15.4 mm	16.9 mm	13.8 mm	15.8 mm	16.1 mm	14.1 mm	14.3 µg/mL (≈ 38.7 µM)	17.5 µg/mL (≈ 47.4 µM)	11.9 µg/mL (≈ 32.2 µM)	
						203 °C		Cc1ccc(N=Nc2cc3c(cc2O)OC(N)=C(C#N)C3c2ccc(F)cc2)cc1 (stereo not drawn) [13a, 2-Amino-4-(4-fluoro-phenyl)-7-hydroxy-6-p-tolylazo-4H-chromene-3-carbonitrile]	20.4 mm	23.7 mm	14.4 mm	21.4 mm	19.6 mm	17.3 mm				
						232 °C		N#CC1=C(N)Oc2c(ccc3c(N)cccc23)C1c1cccs1 (stereo not drawn) [7e, 2,7-Diamino-4-thiophen-2-yl-4H-benzo[h]chromene-3-carbonitrile]	16.4 mm	18.2 mm	15.2 mm	16.9 mm	16.3 mm	14.2 mm	39.9 µg/mL (≈ 125 µM)	61.9 µg/mL (≈ 194 µM)	33.2 µg/mL (≈ 104 µM)	
						254 °C		N#CC1=C(N)Oc2cc(O)c(N=Nc3ccc([N+](=O)[O-])cc3)cc2C1c1ccc(F)cc1 (stereo not drawn) [13c, 2-Amino-4-(4-fluoro-phenyl)-7-hydroxy-6-(4-nitro-phenylazo)-4H-chromene-3-carbonitrile]	13.6 mm	14.3 mm	9.4 mm		14.6 mm	10.4 mm	12.2 µg/mL (≈ 28.3 µM)	10.8 µg/mL (≈ 25 µM)	10.4 µg/mL (≈ 24.1 µM)	
	0.007 µg/mL (≈ 0.02 µM)			0.24 µg/mL (≈ 0.687 µM)				CC1(C)S[C@@H]2[C@H](NC(=O)[C@H](N)c3ccccc3)C(=O)N2[C@H]1C(=O)O [Ampicillin, reference compound]		32.4 mm			23.8 mm					
		3.9 µg/mL (≈ 8.17 µM)					31.2 µg/mL (≈ 65.4 µM)	CNC(C)C1CCC(N)C(OC2C(N)CC(N)C(OC3OCC(C)(O)C(NC)C3O)C2O)O1 (stereo not drawn) [Gentamicin, reference compound]			19.9 mm							17.3 mm
		0.49 µg/mL (≈ 1.48 µM)					0.99 µg/mL (≈ 2.99 µM)	O=C(O)c1cn(C2CC2)c2cc(N3CCNCC3)c(F)cc2c1=O [Ciprofloxacin, reference compound]			25.3 mm							22.3 mm
